Experiment: mn = molality of the nth substance listed, in mol/kg
Details: 100 kPa, Liquid; for speed of sound: Frequency=3 MHz, Sing-around technique in a fixed-path interferometer; for mass density: Vibrating tube method

[Cl-].[K+] [potassium chloride] + O
Details	mass density, 293.15 K [kg/m3]	mass density, 298.15 K [kg/m3]	mass density, 303.15 K [kg/m3]	mass density, 308.15 K [kg/m3]	mass density, 313.15 K [kg/m3]	speed of sound, 293.15 K [m/s]	speed of sound, 298.15 K [m/s]	speed of sound, 303.15 K [m/s]	speed of sound, 308.15 K [m/s]	speed of sound, 313.15 K [m/s]
m1 = 0.1	1002.99	1001.79	1000.36	998.71	996.88	1488.5	1502.5	1514.6	1525.1	1534
m1 = 0.2	1007.72	1006.48	1005.02	1003.35	1001.49	1493.8	1507.3	1519.3	1529.6	1538.4
m1 = 0.3	1013.42	1012.13	1010.63	1008.94	1007.02	1497.6	1511	1522.8	1532.9	1541.6

[Cl-].[Na+] [sodium chloride] + O
Details	mass density, 293.15 K [kg/m3]	mass density, 298.15 K [kg/m3]	mass density, 303.15 K [kg/m3]	mass density, 308.15 K [kg/m3]	mass density, 313.15 K [kg/m3]	speed of sound, 293.15 K [m/s]	speed of sound, 298.15 K [m/s]	speed of sound, 303.15 K [m/s]	speed of sound, 308.15 K [m/s]	speed of sound, 313.15 K [m/s]
m1 = 0.1	1002.42	1001.21	999.77	998.12	996.28	1489.3	1503.3	1515.5	1525.9	1534.8
m1 = 0.2	1006.67	1005.41	1003.93	1002.25	1000.38	1496.2	1509.9	1521.8	1532	1540.7
m1 = 0.3	1010.64	1009.34	1007.81	1006.1	1004.2	1502.3	1515.8	–	1537.6	1546.2

Source: the NIST ThermoML archive (doi:10.1016/j.tca.2014.10.019)
